Literature values, collected in paper PMC6482886 (Chemical Science, 2019).

Tests used:
hDMX = target: T1, hDMX (Homo sapiens, UniProt O15151)
T1 sequence (O15151 1-392): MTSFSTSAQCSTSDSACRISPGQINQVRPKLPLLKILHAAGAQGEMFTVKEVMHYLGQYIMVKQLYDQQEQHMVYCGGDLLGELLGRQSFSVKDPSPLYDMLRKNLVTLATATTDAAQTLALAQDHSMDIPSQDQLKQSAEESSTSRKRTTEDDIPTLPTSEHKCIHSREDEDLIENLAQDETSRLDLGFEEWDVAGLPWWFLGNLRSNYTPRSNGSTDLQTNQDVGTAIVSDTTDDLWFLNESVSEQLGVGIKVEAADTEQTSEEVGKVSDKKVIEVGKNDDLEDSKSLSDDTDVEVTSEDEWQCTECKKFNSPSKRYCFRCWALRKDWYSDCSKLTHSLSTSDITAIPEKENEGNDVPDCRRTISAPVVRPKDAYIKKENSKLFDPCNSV

| binding affinity to hDMX compared with p53 (hDMX) | SMILES | cellular IC50 / cellular activity reported in the literature |
| --- | --- | --- |
|  | N#Cc1c2ccc(N)cc2nc2cc(N)ccc12 [CTX1] | tens to hundreds of micromolar range |
| less affinity to hDMX than p53 | CCOc1cc(/C=C2/C(=O)N(c3ccccc3)N=C2C)cc(Cl)c1OCC(=O)OC [SJ-172550] |  |
